Reference: ChEMBL document CHEMBL1135364, “Synthesis and structure-activity relationships of oxime neurokinin antagonists: discovery of potent arylamides” (Bioorg Med Chem Lett, 2002)

What was measured:
[1] = target: T1, Substance-P receptor (Homo sapiens, UniProt P25103); experiment: Tested for binding affinity against neurokinin 1 (NK1) receptor
[2] = target: T2, Substance-K receptor (Homo sapiens, UniProt P21452); experiment: Binding affinity test against Neurokinin 2 (NK2) receptor
T2 sequence (P21452 whole entry): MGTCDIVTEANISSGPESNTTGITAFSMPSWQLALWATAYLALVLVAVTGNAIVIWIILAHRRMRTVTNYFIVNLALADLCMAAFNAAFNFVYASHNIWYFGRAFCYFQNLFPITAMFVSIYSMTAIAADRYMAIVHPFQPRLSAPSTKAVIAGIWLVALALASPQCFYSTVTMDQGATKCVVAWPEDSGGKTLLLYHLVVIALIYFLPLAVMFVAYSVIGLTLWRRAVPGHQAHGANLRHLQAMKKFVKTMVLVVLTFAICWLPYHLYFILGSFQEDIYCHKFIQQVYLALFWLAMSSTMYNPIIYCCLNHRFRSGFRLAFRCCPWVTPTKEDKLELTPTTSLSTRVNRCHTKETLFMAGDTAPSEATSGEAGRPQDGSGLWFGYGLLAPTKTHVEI

[3] = target: T1, Substance-P receptor; experiment: Affinity for human Neurokinin 1 (NK1) receptor expressed in CHO cells at 1 uM; format: cell-based
[4] = target: T3, Substance-K receptor (Homo sapiens) (UniProt P21452); experiment: Tested for binding affinity of compound against Neurokinin 2 (NK2) receptor at 1 uM
T3 sequence (whole entry): T2 sequence (P21452 whole entry)

T1 sequence (P25103 whole entry): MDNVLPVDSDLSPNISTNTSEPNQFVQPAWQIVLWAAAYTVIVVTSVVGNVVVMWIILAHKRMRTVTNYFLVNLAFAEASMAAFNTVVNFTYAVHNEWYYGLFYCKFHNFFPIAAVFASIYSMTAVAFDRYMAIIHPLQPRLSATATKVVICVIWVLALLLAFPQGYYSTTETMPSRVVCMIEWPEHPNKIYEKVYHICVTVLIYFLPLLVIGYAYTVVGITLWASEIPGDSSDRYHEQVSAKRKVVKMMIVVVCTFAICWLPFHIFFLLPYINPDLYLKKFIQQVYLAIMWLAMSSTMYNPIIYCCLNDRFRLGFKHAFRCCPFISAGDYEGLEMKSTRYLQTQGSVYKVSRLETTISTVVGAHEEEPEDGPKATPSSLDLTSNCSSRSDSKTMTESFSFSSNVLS

| Structure (SMILES) | Ki [1] | Ki [2] | inhibition [3] | inhibition [4] |
| --- | --- | --- | --- | --- |
| CO/N=C(\COCCc1cc(C(F)(F)F)cc(C(F)(F)F)c1)C(CCN1CCC(O)(c2ccccc2)CC1)c1ccc(Cl)c(Cl)c1 (stereo not given) | 0.039 µM | 0.118 µM |  |  |
| CO/N=C(\COCC12CC3CC(CC(C3)C1)C2)C(CCN1CCC(O)(c2ccccc2)CC1)c1ccc(Cl)c(Cl)c1 (stereo not given) |  | 0.007 µM | 0% |  |
| CO/N=C(\COCc1ccccn1)C(CCN1CCC(O)(c2ccccc2)CC1)c1ccc(Cl)c(Cl)c1 (stereo not given) |  | 0.043 µM |  |  |
| CO/N=C(\CN(C)C(=O)c1cc(C)cc(C)c1)C(CCN1CCC(O)(c2ccccc2)CC1)c1ccc(Cl)c(Cl)c1 (stereo not given) | 0.001 µM | 0.002 µM |  |  |
| CO/N=C(\COc1cc(C(F)(F)F)cc(C(F)(F)F)c1)C(CCN1CCC(O)(c2ccccc2)CC1)c1ccc(Cl)c(Cl)c1 (stereo not given) | 0.081 µM |  |  | 31% |
| CO/N=C(\CNC(=O)c1cc(C(F)(F)F)cc(C(F)(F)F)c1)C(CCN1CCC(O)(c2ccccc2)CC1)c1ccc(Cl)c(Cl)c1 (stereo not given) |  | 0.002 µM |  |  |
| CO/N=C(\CCCc1cc(C(F)(F)F)cc(C(F)(F)F)c1)C(CCN1CCC(O)(c2ccccc2)CC1)c1ccc(Cl)c(Cl)c1 (stereo not given) | 0.092 µM | 0.332 µM |  |  |
| CO/N=C(\COCc1cc(C(C)(C)C)cc(C(C)(C)C)c1)C(CCN1CCC(O)(c2ccccc2)CC1)c1ccc(Cl)c(Cl)c1 (stereo not given) |  | 0.13 µM | 19% |  |
| CO/N=C(\CNCc1cc(C(F)(F)F)cc(C(F)(F)F)c1)C(CCN1CCC(O)(c2ccccc2)CC1)c1ccc(Cl)c(Cl)c1 (stereo not given) | 0.05 µM | 0.13 µM |  |  |
| CO/N=C(\CN(C)C(=O)c1ccccc1OC)C(CCN1CCC(O)(c2ccccc2)CC1)c1ccc(Cl)c(Cl)c1 (stereo not given) |  | 0.004 µM |  |  |
| CO/N=C(\CN(C)C(=O)c1cc(OC)cc(OC)c1)C(CCN1CCC(O)(c2ccccc2)CC1)c1ccc(Cl)c(Cl)c1 (stereo not given) | 0.005 µM | 0.002 µM |  |  |
| CO/N=C(\COCc1cc(Br)cc(Br)c1)C(CCN1CCC(O)(c2ccccc2)CC1)c1ccc(Cl)c(Cl)c1 (stereo not given) | 0.01 µM | 0.015 µM |  |  |
| CO/N=C(\CN(C)C(=O)Nc1cc(C(F)(F)F)cc(C(F)(F)F)c1)C(CCN1CCC(O)(c2ccccc2)CC1)c1ccc(Cl)c(Cl)c1 (stereo not given) | 0.005 µM | 0.008 µM |  |  |
| CO/N=C(\COCc1ccc(C)cc1)C(CCN1CCC(O)(c2ccccc2)CC1)c1ccc(Cl)c(Cl)c1 (stereo not given) |  | 0.009 µM | 48% |  |
| CO/N=C(\CNC(=O)c1ccccc1OC)C(CCN1CCC(O)(c2ccccc2)CC1)c1ccc(Cl)c(Cl)c1 (stereo not given) |  | 0.054 µM |  |  |
| CO/N=C(\CN(C)S(=O)(=O)c1cc(C(F)(F)F)cc(C(F)(F)F)c1)C(CCN1CCC(O)(c2ccccc2)CC1)c1ccc(Cl)c(Cl)c1 (stereo not given) | 0.435 µM | 0.286 µM |  |  |
| CO/N=C(\COCc1ccccc1C)C(CCN1CCC(O)(c2ccccc2)CC1)c1ccc(Cl)c(Cl)c1 (stereo not given) |  | 0.136 µM | 34% |  |
| CO/N=C(\COCc1cc(C)cc(C)c1)C(CCN1CCC(O)(c2ccccc2)CC1)c1ccc(Cl)c(Cl)c1 (stereo not given) |  | 0.008 µM |  |  |
| CO/N=C(\COC/C=C/c1cc(C(F)(F)F)cc(C(F)(F)F)c1)C(CCN1CCC(O)(c2ccccc2)CC1)c1ccc(Cl)c(Cl)c1 (stereo not given) |  | 0.02 µM | 36% |  |
| CO/N=C(\COCc1ccc2ccc(C(F)(F)F)nc2c1)C(CCN1CCC(O)(c2ccccc2)CC1)c1ccc(Cl)c(Cl)c1 (stereo not given) |  | 0.02 µM | 23% |  |
| CO/N=C(\CN(C)C(=O)c1ccc(C)s1)C(CCN1CCC(O)(c2ccccc2)CC1)c1ccc(Cl)c(Cl)c1 (stereo not given) |  | 0.002 µM |  |  |
| CO/N=C(\CN(C)C(=O)c1cc(Cl)cc(Cl)c1)C(CCN1CCC(O)(c2ccccc2)CC1)c1ccc(Cl)c(Cl)c1 (stereo not given) | 0.002 µM | 0.004 µM |  |  |
| CO/N=C(\CN(C)C(=O)c1cc(C(F)(F)F)cc(C(F)(F)F)c1)C(CCN1CCC(O)(c2ccccc2)CC1)c1ccc(Cl)c(Cl)c1 (stereo not given) | 0.004 µM | 0.009 µM |  |  |
| CO/N=C(\COCc1cc(OC)cc(OC)c1)C(CCN1CCC(O)(c2ccccc2)CC1)c1ccc(Cl)c(Cl)c1 (stereo not given) |  | 0.018 µM |  |  |
| CO/N=C(\COCc1ccccc1)C(CCN1CCC(O)(c2ccccc2)CC1)c1ccc(Cl)c(Cl)c1 (stereo not given) |  | 0.04 µM | 33% |  |
| CO/N=C(\COCc1cc(OC)c(OC)c(OC)c1)C(CCN1CCC(O)(c2ccccc2)CC1)c1ccc(Cl)c(Cl)c1 (stereo not given) |  | 0.028 µM |  |  |
| CO/N=C(\COCc1ccc(C(C)(C)C)cc1)C(CCN1CCC(O)(c2ccccc2)CC1)c1ccc(Cl)c(Cl)c1 (stereo not given) |  | 0.004 µM | 6% |  |

| Structure (SMILES) | Ki [1] | Ki [2] | inhibition [3] | inhibition [4] |
| --- | --- | --- | --- | --- |
| CO/N=C(\C(C)OCc1cc(C(F)(F)F)cc(C(F)(F)F)c1)C(CCN1CCC(O)(c2ccccc2)CC1)c1ccc(Cl)c(Cl)c1 (stereo not given) | 0.075 µM | 0.157 µM |  |  |
| CO/N=C(\CN(C)C(=O)c1cncc(Br)c1)C(CCN1CCC(O)(c2ccccc2)CC1)c1ccc(Cl)c(Cl)c1 (stereo not given) | 0.007 µM | 0.004 µM |  |  |
| CO/N=C(\CN(C)Cc1cc(C(F)(F)F)cc(C(F)(F)F)c1)C(CCN1CCC(O)(c2ccccc2)CC1)c1ccc(Cl)c(Cl)c1 (stereo not given) | 0.042 µM | 0.022 µM |  |  |
| CO/N=C(\COC(=O)c1cc(C(F)(F)F)cc(C(F)(F)F)c1)C(CCN1CCC(O)(c2ccccc2)CC1)c1ccc(Cl)c(Cl)c1 (stereo not given) | 0.168 µM | 0.025 µM |  |  |
| CO/N=C(\CN(C)C(=O)c1cc(OC)c(Br)c(OC)c1)C(CCN1CCC(O)(c2ccccc2)CC1)c1ccc(Cl)c(Cl)c1 (stereo not given) | 0.005 µM | 0.008 µM |  |  |
| CO/N=C(\COCc1ccc(F)c2ccccc12)C(CCN1CCC(O)(c2ccccc2)CC1)c1ccc(Cl)c(Cl)c1 (stereo not given) |  | 0.021 µM |  |  |
| CO/N=C(\CN(C)C(=O)c1cc(C)nc(N2CCCC2)c1)C(CCN1CCC(O)(c2ccccc2)CC1)c1ccc(Cl)c(Cl)c1 (stereo not given) | 0.002 µM | 0.003 µM |  |  |
| CO/N=C(\COCc1ccc2nonc2c1)C(CCN1CCC(O)(c2ccccc2)CC1)c1ccc(Cl)c(Cl)c1 (stereo not given) |  | 0.017 µM | 29% |  |
| CO/N=C(\COCc1ccc2ccccc2c1)C(CCN1CCC(O)(c2ccccc2)CC1)c1ccc(Cl)c(Cl)c1 (stereo not given) |  | 0.012 µM | 37% |  |
| CO/N=C(\CN(C)C(=O)c1ccc(N(C)C)c2ccccc12)C(CCN1CCC(O)(c2ccccc2)CC1)c1ccc(Cl)c(Cl)c1 (stereo not given) |  | 0.007 µM |  |  |
| CO/N=C(\COCc1ccc2sc(C)nc2c1)C(CCN1CCC(O)(c2ccccc2)CC1)c1ccc(Cl)c(Cl)c1 (stereo not given) |  | 0.021 µM | 48% |  |
| CO/N=C(\CN(C)C(=O)c1cc(C)nc(C)c1)C(CCN1CCC(O)(c2ccccc2)CC1)c1ccc(Cl)c(Cl)c1 (stereo not given) |  | 0.006 µM |  |  |
| CO/N=C(\COCc1cc(F)cc(F)c1)C(CCN1CCC(O)(c2ccccc2)CC1)c1ccc(Cl)c(Cl)c1 (stereo not given) |  | 0.042 µM |  |  |
| CO/N=C(\C(=O)N(C)Cc1cc(C(F)(F)F)cc(C(F)(F)F)c1)C(CCN1CCC(O)(c2ccccc2)CC1)c1ccc(Cl)c(Cl)c1 (stereo not given) | 0.006 µM | 0.167 µM |  |  |
| CO/N=C(\CO/C=C/c1cc(C(F)(F)F)cc(C(F)(F)F)c1)C(CCN1CCC(O)(c2ccccc2)CC1)c1ccc(Cl)c(Cl)c1 (stereo not given) |  | 0.1 µM | 20% |  |
| CO/N=C(\COCc1cc(Cl)cc(Cl)c1)C(CCN1CCC(O)(c2ccccc2)CC1)c1ccc(Cl)c(Cl)c1 (stereo not given) |  | 0.006 µM |  |  |
| CO/N=C(\CN(C)C(=O)c1cc(C)nc(N(C)C)c1)C(CCN1CCC(O)(c2ccccc2)CC1)c1ccc(Cl)c(Cl)c1 (stereo not given) | 0.002 µM | 0.001 µM |  |  |
| CO/N=C(\COCc1cc(F)cc(C(F)(F)F)c1)C(CCN1CCC(O)(c2ccccc2)CC1)c1ccc(Cl)c(Cl)c1 (stereo not given) |  | 0.01 µM |  |  |
| CO/N=C(\COC(=O)Nc1cc(C(F)(F)F)cc(C(F)(F)F)c1)C(CCN1CCC(O)(c2ccccc2)CC1)c1ccc(Cl)c(Cl)c1 (stereo not given) | 0.032 µM | 0.035 µM |  |  |
| CO/N=C(\CCc1cc(C(F)(F)F)cc(C(F)(F)F)c1)C(CCN1CCC(O)(c2ccccc2)CC1)c1ccc(Cl)c(Cl)c1 (stereo not given) | 0.023 µM |  |  | 51% |
| CO/N=C(\CN(C)C(=O)c1cc(C)nc(-c2cccs2)c1)C(CCN1CCC(O)(c2ccccc2)CC1)c1ccc(Cl)c(Cl)c1 (stereo not given) | 0.002 µM | 0.006 µM |  |  |
| CO/N=C(\CN(C)C(=O)Oc1cc(C(F)(F)F)cc(C(F)(F)F)c1)C(CCN1CCC(O)(c2ccccc2)CC1)c1ccc(Cl)c(Cl)c1 (stereo not given) | 0.006 µM | 0.011 µM |  |  |
| CO/N=C(\COCC1CCCCC1)C(CCN1CCC(O)(c2ccccc2)CC1)c1ccc(Cl)c(Cl)c1 (stereo not given) |  | 0.013 µM | 21% |  |
| CO/N=C(\CN(C)C(=O)c1cc(OC)c(OC)c(OC)c1)C(CCN1CCC(O)(c2ccccc2)CC1)c1ccc(Cl)c(Cl)c1 (stereo not given) |  | 0.003 µM |  |  |
| CO/N=C(\COCc1ccc(-c2ccccc2)cc1)C(CCN1CCC(O)(c2ccccc2)CC1)c1ccc(Cl)c(Cl)c1 (stereo not given) |  | 0.038 µM | 2% |  |
| CO/N=C(\COCc1noc(C(C)(C)C)n1)C(CCN1CCC(O)(c2ccccc2)CC1)c1ccc(Cl)c(Cl)c1 (stereo not given) |  | 0.001 µM |  |  |
